Patent US20250197387A1, “BCL-XL DEGRADERS AND USES THEREOF” (Kymera Therapeutics, Inc., priority 2021, published 2025)
pIC50: −log10 of the molar value. Read-outs that look alike come from different tables or passages of the source.

Legend:
Type in all cases: cell-based
[1] = system: Caki-2 cells; assay: CTG (CellTiter-Glo) cell viability assay, Caki-2; details: Homo sapiens, 72 h, 3 day incubation, read-out: CTG Chempartner - Caki-2 3 day: Average external-IC50
In short: (§1)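 Luminescence from CellTiter-Glo, read after 3 days of compound exposure at 37 °C, gave viability; IC50 values came from three-parameter logistic curves. Cells were plated at 10,000 per well and dosed over nine 1:3 steps topping at 10 μM.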

[2] = biological target: T1, BCL-XL (Homo sapiens, UniProt Q07817); assay: Bcl-xL ELISA degradation in MOLT-4 cells, 6 h; details: for DC50: read-out: Bcl-xL ELISA in MOLT-4 degradation 6 h: Mean external-Abs DC50
T1 construct: endogenous in cells; host or cells: MOLT-4
Description: The letter codes for BCL-XL DC50 include: A (<0.01 μM); B (0.01-0.1 μM); C (>[…]); D (>0.5-1.0 μM); and E (>1.0 μM). The letter codes for Dmax % include A (>75%); B (50 to 75%); C (<50%).

[3] = system: MOLT-4 cells; assay: CTG (CellTiter-Glo) cell viability assay, MOLT-4; details: Homo sapiens, 3 day incubation, read-out: CTG Cell Viability Assay - MOLT-4 3 day: Average external-IC50
In short: as §1

T1 sequence (Q07817 whole entry): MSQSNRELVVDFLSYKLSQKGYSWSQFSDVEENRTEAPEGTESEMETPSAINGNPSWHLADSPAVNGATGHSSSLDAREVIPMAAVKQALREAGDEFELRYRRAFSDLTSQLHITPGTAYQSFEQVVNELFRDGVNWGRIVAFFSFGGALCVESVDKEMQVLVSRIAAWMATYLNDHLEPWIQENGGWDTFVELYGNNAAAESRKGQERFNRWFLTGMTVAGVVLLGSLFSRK

| Compound | Dmax [2] | DC50 [2] | pIC50 ([3]; MOLT-4, 72 h) | pIC50 [1] | pIC50 ([3]; 72 h) |
| --- | --- | --- | --- | --- | --- |
| Cc1ncsc1-c1ccc(CNC(=O)[C@@H]2C[C@@H](O)CN2C(=O)[C@@H](NC(=O)CCc2cc(F)c(S(=O)(=O)NC(=O)c3nc(N4CCc5cccc(C(=O)Nc6nc7ccccc7s6)c5C4)ccc3-c3cnn(CC4CCCCC4)c3C)c(F)c2)C(C)(C)C)cc1 [I-347] | > 75% | 0.01 to 0.1 µM | 6.00 to 7.00 | < 5.00 |  |
| Cc1ncsc1-c1ccc([C@H](C)NC(=O)[C@@H]2C[C@@H](O)CN2C(=O)[C@@H](NC(=O)C2CCN(c3ccc(S(=O)(=O)NC(=O)c4nc(N5CCc6cccc(C(=O)Nc7nc8ccccc8s7)c6C5)ccc4-c4cnn(CC5CCCC5)c4C)cc3)CC2)C(C)(C)C)cc1 [I-348] | > 75% | < 0.01 µM | > 7.00 | < 5.00 |  |
| Cc1ncsc1-c1ccc([C@H](C)NC(=O)[C@@H]2C[C@@H](OC(=O)CCP(=O)(O)O)CN2C(=O)[C@@H](NC(=O)C2CCN(c3ccc(S(=O)(=O)NC(=O)c4nc(N5CCc6cccc(C(=O)Nc7nc8ccccc8s7)c6C5)ccc4-c4cnn(CC5CCCCC5)c4C)cc3)CC2)C(C)(C)C)cc1 [I-350] | > 75% | 0.01 to 0.1 µM |  | 5.00 to 6.00 | 6.00 to 7.00 |
| C#Cc1ccc(CNC(=O)[C@@H]2C[C@@H](O)CN2C(=O)[C@@H](NC(=O)CCCCCS(=O)(=O)NC(=O)c2nc(N3CCc4cccc(C(=O)Nc5nc6cccnc6s5)c4C3)ccc2-c2cnn(CC3CCCCC3)c2C)C(C)(C)C)cc1 [I-352] | > 75% | < 0.01 µM | > 7.00 | < 5.00 |  |
| C#Cc1ccc(CNC(=O)[C@@H]2C[C@@H](O)CN2C(=O)[C@@H](NC(=O)CCCCCS(=O)(=O)NC(=O)c2nc(N3CCc4cccc(C(=O)Nc5nc6ccccc6s5)c4C3)ccc2-c2cnn(CC3CCCCC3)c2C)C(C)(C)CCO)cc1 [I-354] | > 75% | < 0.01 µM | > 7.00 | < 5.00 |  |
| C#Cc1ccc(CNC(=O)[C@@H]2C[C@@H](O)CN2C(=O)[C@H](NC(=O)CCCCCS(=O)(=O)NC(=O)c2nc(N3CCc4cccc(C(=O)Nc5nc6ccccc6s5)c4C3)ccc2-c2cnn(CC3CCCCC3)c2C)C(C)(C)CCO)cc1 [I-355] | > 75% | 0.1 to 0.5 µM | 5.52 to 6.00 | < 5.00 |  |
| Cc1ncsc1-c1ccc([C@H](C)NC(=O)[C@@H]2C[C@@H](O)CN2C(=O)[C@@H](NC(=O)[C@H]2CC[C@H](N3CCC(S(=O)(=O)NC(=O)c4nc(N5CCc6cccc(C(=O)Nc7nc8ccccc8s7)c6C5)ccc4-c4cnn(CC5CCCCC5)c4C)CC3)CC2)C(C)(C)C)cc1 [I-357] | > 75% | 0.1 to 0.5 µM | 5.52 to 6.00 | 5.00 to 6.00 |  |
| C#Cc1ccc(CNC(=O)[C@@H]2C[C@@H](O)CN2C(=O)[C@@H](NC(=O)C2CN(c3ccc(S(=O)(=O)NC(=O)c4nc(N5CCc6cccc(C(=O)Nc7nc8ccccc8s7)c6C5)ccc4-c4cnn(CC5CCCCC5)c4C)cc3F)C2)C(C)(C)C)cc1 [I-358] | > 75% | 0.01 to 0.1 µM | > 7.00 | 5.00 to 6.00 |  |
| Cc1ncsc1-c1ccc(CNC(=O)[C@@H]2C[C@@H](O)CN2C(=O)[C@@H](NC(=O)[C@H]2CCN(c3ccc(S(=O)(=O)NC(=O)c4nc(N5CCc6cccc(C(=O)Nc7nc8ccccc8s7)c6C5)ccc4-c4cnn(CC5CCCCC5)c4C)cc3)C2)C(C)(C)C)cc1 [I-359] | > 75% | < 0.01 µM | > 7.00 | < 5.00 |  |
| Cc1ncsc1-c1ccc(CNC(=O)[C@@H]2C[C@@H](O)CN2C(=O)[C@@H](NC(=O)C2CCN(c3ccc(S(=O)(=O)NC(=O)c4nc(N5CCc6cccc(C(=O)Nc7nc8ccccc8s7)c6C5)ccc4-c4cnn(CC5CCCCC5)c4C)cc3C#N)CC2)C(C)(C)C)cc1 [I-360] | > 75% | < 0.01 µM | 6.00 to 7.00 | < 5.00 |  |
| C#Cc1ccc(CNC(=O)[C@@H]2C[C@@H](O)CN2C(=O)[C@@H](NC(=O)CCCS(=O)(=O)NC(=O)c2nc(N3CCc4cccc(C(=O)Nc5nc6cccnc6s5)c4C3)ccc2-c2cnn(CC3CCCCC3)c2C)C(C)(C)C)cc1 [I-362] | > 75% | 0.01 to 0.1 µM | 6.00 to 7.00 | < 5.00 |  |
| C#Cc1ccc([C@H](C)NC(=O)[C@@H]2C[C@@H](O)CN2C(=O)[C@@H](NC(=O)CCCCCS(=O)(=O)NC(=O)c2nc(N3CCc4cccc(C(=O)Nc5nc6cccnc6s5)c4C3)ccc2-c2cnn(CC3CCCCC3)c2C)C(C)(C)C)cc1 [I-364] | > 75% | < 0.01 µM | > 7.00 | < 5.00 |  |

The next lines start with results.

| Dmax [2] | DC50 [2] | pIC50 ([3]; MOLT-4, 72 h) | Compound | pIC50 [1] | pIC50 ([3]; 72 h) |
| --- | --- | --- | --- | --- | --- |
| > 75% | 0.01 to 0.1 µM | 6.00 to 7.00 | Cc1ncsc1-c1ccc([C@H](C)NC(=O)[C@@H]2C[C@@H](O)CN2C(=O)[C@@H](NC(=O)N2CC(Cc3ccc(S(=O)(=O)NC(=O)c4nc(N5CCc6cccc(C(=O)Nc7nc8ccccc8s7)c6C5)ccc4-c4cnn(CC5CCCCC5)c4C)cc3)C2)C(C)(C)C)cc1 [I-346] | < 5.00 |  |
| > 75% | < 0.01 µM | > 7.00 | CCC(CC)Cn1ncc(-c2ccc(N3CCc4cccc(C(=O)Nc5nc6ccccc6s5)c4C3)nc2C(=O)NS(=O)(=O)c2ccc(N3CCC(C(=O)N[C@H](C(=O)N4C[C@H](O)C[C@H]4C(=O)N[C@@H](C)c4ccc(-c5scnc5C)cc4)C(C)(C)C)CC3)cc2)c1C [I-349] | < 5.00 |  |
| > 75% | < 0.01 µM | > 7.00 | Cc1cc(N(C)c2ccc(-c3cnn(CC45CC6CC(CC(C6)C4)C5)c3C)c(C(=O)NS(=O)(=O)CCCCCC(=O)N[C@H](C(=O)N3C[C@H](O)C[C@H]3C(=O)N[C@@H](C)c3ccc(-c4scnc4C)cc3)C(C)(C)C)n2)nnc1Nc1nc2ccccc2s1 [I-356] | < 5.00 |  |
| > 75% | 0.01 to 0.1 µM | > 7.00 | Cc1ncsc1-c1ccc([C@H](C)NC(=O)[C@@H]2C[C@@H](O)CN2C(=O)[C@@H](NC(=O)CCCCCS(=O)(=O)NC(=O)c2nc(N3CCc4cccc(C(=O)Nc5nc6cccnc6s5)c4C3)ccc2-c2cnn(CC3CCCCC3)c2C)C(C)(C)C)cc1 [I-363] | < 5.00 |  |
| > 75% | 0.01 to 0.1 µM | > 7.00 | Cc1ncsc1-c1ccc([C@H](C)NC(=O)[C@@H]2C[C@@H](O)CN2C(=O)[C@@H](NC(=O)CCCCCS(=O)(=O)NC(=O)c2nc(N3CCc4cccc(C(=O)Nc5nc6ccccc6s5)c4C3)ccc2-c2cnn(CC3CCCCC3)c2C)C(C)(C)CCO)cc1 [I-365] | < 5.00 |  |
| > 75% | 0.1 to 0.5 µM | 5.52 to 6.00 | Cc1ncsc1-c1ccc([C@H](C)NC(=O)[C@@H]2C[C@@H](O)CN2C(=O)[C@H](NC(=O)CCCCCS(=O)(=O)NC(=O)c2nc(N3CCc4cccc(C(=O)Nc5nc6ccccc6s5)c4C3)ccc2-c2cnn(CC3CCCCC3)c2C)C(C)(C)CCO)cc1 [I-366] | < 5.00 |  |
| > 75% | 0.01 to 0.1 µM | > 7.00 | Cc1cc(N(C)c2ccc(-c3cnn(CC45CC6CC(CC(C6)C4)C5)c3C)c(C(=O)NS(=O)(=O)CCCCCC(=O)N[C@H](C(=O)N3C[C@H](O)C[C@H]3C(=O)NCc3ccc(-c4scnc4C)cc3)C(C)(C)C)n2)nnc1Nc1nc2ccccc2s1 [I-367] | < 5.00 |  |
| > 75% | 0.01 to 0.1 µM | > 7.00 | C#Cc1ccc([C@H](C)NC(=O)[C@@H]2C[C@@H](O)CN2C(=O)[C@@H](NC(=O)CCCCS(=O)(=O)NC(=O)c2nc(N(C)c3cc(C)c(Nc4nc5ccccc5s4)nn3)ccc2-c2cnn(CC34CC5CC(CC(C5)C3)C4)c2C)C(C)(C)C)cc1 [I-368] | < 5.00 |  |
| > 75% | 0.01 to 0.1 µM | > 7.00 | C#Cc1ccc(CNC(=O)[C@@H]2C[C@@H](O)CN2C(=O)[C@@H](NC(=O)CCCCS(=O)(=O)NC(=O)c2nc(N(C)c3cc(C)c(Nc4nc5ccccc5s4)nn3)ccc2-c2cnn(CC34CC5CC(CC(C5)C3)C4)c2C)C(C)(C)C)cc1 [I-369] | < 5.00 |  |
| > 75% | 0.01 to 0.1 µM | > 7.00 | Cc1cc(N(C)c2ccc(-c3cnn(CC45CC6CC(CC(C6)C4)C5)c3C)c(C(=O)NS(=O)(=O)CCCC(=O)N[C@H](C(=O)N3C[C@H](O)C[C@H]3C(=O)N[C@@H](C)c3ccc(-c4scnc4C)cc3)C(C)(C)C)n2)nnc1Nc1nc2ccccc2s1 [I-370] | < 5.00 |  |
| > 75% | < 0.01 µM | 6.00 to 7.00 | Cc1cc(N(C)c2ccc(-c3cnn(CC45CC6CC(CC(C6)C4)C5)c3C)c(C(=O)NS(=O)(=O)CCCCC(=O)N[C@H](C(=O)N3C[C@H](O)C[C@H]3C(=O)NCc3ccc(-c4scnc4C)cc3)C(C)(C)C)n2)nnc1Nc1nc2ccccc2s1 [I-371] | < 5.00 |  |
| > 75% | 0.01 to 0.1 µM | > 7.00 | Cc1cc(N(C)c2ccc(-c3cnn(CC45CC6CC(CC(C6)C4)C5)c3C)c(C(=O)NS(=O)(=O)CCCCC(=O)N[C@H](C(=O)N3C[C@H](O)C[C@H]3C(=O)N[C@@H](C)c3ccc(-c4scnc4C)cc3)C(C)(C)C)n2)nnc1Nc1nc2ccccc2s1 [I-372] | < 5.00 |  |
| > 75% | 0.01 to 0.1 µM | 6.00 to 7.00 | Cc1ncsc1-c1ccc([C@H](C)NC(=O)[C@@H]2C[C@@H](O)CN2C(=O)[C@@H](NC(=O)C2CCN(CCS(=O)(=O)NC(=O)c3nc(N4CCc5cccc(C(=O)Nc6nc7ccccc7s6)c5C4)ccc3-c3cnn(CC4CCCCC4)c3C)CC2)C(C)(C)C)cc1 [I-373] | < 5.00 |  |
